This note sets out measurements from ChEMBL document CHEMBL5131492, “Harringtonine Ester Derivatives with Enhanced Antiproliferative Activities against HL-60 and HeLa Cells” (J Nat Prod, 2022).

A word on the IC50: it is the concentration that gives 50% inhibition.

Bounds are passed on as bounds.

One assay relates to HL-60. Kind of assay: Antiproliferative activity against human HL-60 cells assessed as inhibition of cell growth measured after 68 hrs by MTS assay. It counts as functional, cell-based. As to conditions: HL-60, 68 h. On the technique in general: Tetrazolium dyes change colour on reduction, which living cells bring about.
In a further assay the test system is HeLa. Kind of assay: Antiproliferative activity against human HeLa cells assessed as inhibition of cell growth measured after 68 hrs by MTS assay. Format: functional, cell-based.

For `COC1=C[C@]23CCCN2CCc2cc4c(cc2[C@@H]3[C@@H]1OC(=O)[C@@](O)(CCC(C)(C)O)CC(=O)OC(C)(C)C)OCO4`, the IC50 in the assay on HL-60 was 6200 nM; in the assay with HeLa it was above 100000 nM.

For `CCCCCCCCOC(=O)C[C@](O)(CCC(C)(C)O)C(=O)O[C@@H]1C(OC)=C[C@]23CCCN2CCc2cc4c(cc2[C@H]13)OCO4`, the IC50 with HL-60 came to 11.8 nM; with HeLa it was 2000 nM.

As for `CCCOC(=O)C[C@](O)(CCC(C)(C)O)C(=O)O[C@@H]1C(OC)=C[C@]23CCCN2CCc2cc4c(cc2[C@H]13)OCO4`, the IC50 with HL-60 amounted to 104 nM; in the assay on HeLa, 15800 nM.

As to `COC(=O)C[C@](O)(CCCC(C)(C)O)C(=O)O[C@@H]1C(OC)=C[C@]23CCCN2CCc2cc4c(cc2[C@H]13)OCO4` [OMACETAXINE MEPESUCCINATE], in the assay on HeLa, the IC50 came out at 1700 nM.

In the case of `CCCCCCOC(=O)C[C@](O)(CCC(C)(C)O)C(=O)O[C@@H]1C(OC)=C[C@]23CCCN2CCc2cc4c(cc2[C@H]13)OCO4`, the figures for the IC50 in the assay with HL-60 and in the assay on HeLa were 9.6 nM and 1900 nM, respectively.

Regarding `CCCCCOC(=O)C[C@](O)(CCC(C)(C)O)C(=O)O[C@@H]1C(OC)=C[C@]23CCCN2CCc2cc4c(cc2[C@H]13)OCO4`, the concentration for half-maximal inhibition (IC50) in the assay with HL-60 is 22.7 nM; with HeLa, 6000 nM.

For the compound `COC1=C[C@]23CCCN2CCc2cc4c(cc2[C@@H]3[C@@H]1OC(=O)[C@@](O)(CCC(C)(C)O)CC(=O)OC(C)C)OCO4`, the figures for the half-maximal inhibitory concentration (IC50) in the assay with HL-60 and with HeLa were 583 nM and 60600 nM, respectively.

As for `CCCCCCCOC(=O)C[C@](O)(CCC(C)(C)O)C(=O)O[C@@H]1C(OC)=C[C@]23CCCN2CCc2cc4c(cc2[C@H]13)OCO4`, the results for the IC50 with HL-60 and in the assay with HeLa were 9.4 nM and 400 nM, respectively.

For `COC1=C[C@]23CCCN2CCc2cc4c(cc2[C@@H]3[C@@H]1OC(=O)[C@@](O)(CCC(C)(C)O)CC(=O)O)OCO4`, the IC50 in the assay on HL-60 and in the assay on HeLa was above 100000 nM throughout.

As for `CCC(C)OC(=O)C[C@](O)(CCC(C)(C)O)C(=O)O[C@@H]1C(OC)=C[C@]23CCCN2CCc2cc4c(cc2[C@H]13)OCO4` (mixture of isomers), the IC50 is 499 nM in the assay with HL-60 and 97900 nM with HeLa.

For `CCOC(=O)C[C@](O)(CCC(C)(C)O)C(=O)O[C@@H]1C(OC)=C[C@]23CCCN2CCc2cc4c(cc2[C@H]13)OCO4`, the figures for the IC50 in the assay on HL-60 and with HeLa were 186 nM and 24200 nM, respectively.

As to `COC(=O)C[C@](O)(CCC(C)(C)O)C(=O)O[C@@H]1C(OC)=C[C@]23CCCN2CCc2cc4c(cc2[C@H]13)OCO4` [HARRINGTONINE], the figures for the IC50 in the assay on HL-60 and in the assay on HeLa were 50.5 nM and 4000 nM, respectively.

On to `COC1=C[C@]23CCCN2CCc2cc4c(cc2[C@@H]3[C@@H]1OC(=O)[C@@](O)(CCC(C)(C)O)CC(=O)OCC(C)C)OCO4`, for which the figures for the IC50 in the assay with HL-60 and in the assay with HeLa were 119 nM and 23800 nM, respectively.

Turning to `CCCCOC(=O)C[C@](O)(CCC(C)(C)O)C(=O)O[C@@H]1C(OC)=C[C@]23CCCN2CCc2cc4c(cc2[C@H]13)OCO4`, the IC50 in the assay with HL-60 stood at 42.4 nM; in the assay with HeLa, 10800 nM.
